According to US20170283440A1, “CARM1 INHIBITORS AND USES THEREOF” (Epizyme, Inc., priority 2014, published 2017):
Read-outs that look alike come from different tables or passages of the source.

What was measured:
Human CARM1 (PRMT4) = target: T1, Human CARM1 (PRMT4) (Homo sapiens, UniProt Q86X55); experiment: CARM1 enzyme assay on peptide substrate (3H-SAM Flashplate); format: biochemical; details: CARM1 0.25 nM, 3H-SAM 30 nM, peptide 250 nM; read-out: Biochem IC50
T1 construct: Flag-CARM1-His was eluted with 200 ug/ml FLAG peptide in buffer A; made in house; host or cells: HEK 293F cells infected with recombinant baculovirus (pFastBacMam)
Text: S-adenosylmethionine (SAM), S-adenosylhomocysteine (SAH), bicine, Tween20, dimethylsulfoxide (DMSO), bovine skin gelatin (BSG), sodium butyrate and Tris(2-carboxyethyl)phosphine hydrochloride solution (TCEP) were purchased from Sigma-Aldrich at the highest level of purity possible. ^3H-SAM was purchase from American Radiolabeled Chemicals with a specific activity of 80 Ci/mmol. 384-well streptavidin Flashplates were purchased from PerkinElmer.
Peptide representative of human histone H3 residues 16-30 was synthesized with an N-terminal linker-affinity tag motif and a C-terminal amide cap by 21st Century Biochemicals. The peptide was purified by high-performance liquid chromatography (HPLC) to greater than 95% purity and confirmed by liquid chromatography mass spectrometry (LC-MS). The sequence was Biot-Ahx-[…]-amide and contained a monomethylated arginine at position 26 (SEQ ID NO.:1).
Human CARM1 (PRMT4) (NM_199141.1) transcript clone was amplified from an HEK 293 cDNA library, incorporating a flanking 5′ sequence encoding a FLAG tag ([…]) (SEQ ID NO.:2) fused directly to Ala 2 of CARM1 and 3′ sequence encoding a hexa His sequence ([…]) (SEQ ID NO.:3) fused directly to Ser 608. The gene sequence encoding isoform1 containing a deletion of amino acids 539-561 was amplified subsequently and subcloned into pFastBacMam (Viva Biotech).
Recombinant baculovirus were generated according to Bac-to-Bac kit instructions (Life Technologies). Protein over-expression was accomplished by infecting exponentially growing HEK 293F cell culture at 1.3×10^6 cell/ml with virus (MOI=10) in the presence of 8 mM sodium butyrate. Infections were carried out at 37° C. for 48 hours, harvested by centrifugation, and stored at −80° C. for purification.
Column was washed with 500 mM NaCl in buffer A and Flag-CARM1-His was eluted with 200 ug/ml FLAG peptide in buffer A. Pooled fractions were dialyzed in 20 mM Tris, 150 mM NaCl, 5% glycerol and 1 mM DTT, pH 7.8. The purity of recovered protein was 94.
The assays were all performed in a buffer consisting of 20 mM Bicine (pH=7.6), 1 mM TCEP, 0.005% BSG, and 0.002% Tween 20, prepared on the day of use. Compounds in 100% DMSO (1 ul) were spotted into a polypropylene 384-well V-bottom plates (Greiner) using a Platemate Plus outfitted with a 384-channel head (Thermo Scientific). DMSO (1 ul) was added to Columns 11, 12, 23, 24, rows A-H for the maximum signal control and 1 ul of SAH, a known product and inhibitor of CARM1, was added to columns 11, 12, 23, 24, rows I—P for the minimum signal control. A cocktail (40 ul) containing the CARM1 enzyme was added by Multidrop Combi (Thermo-Fisher). The compounds were allowed to incubate with CARM1 for 30 min at room temperature, then a cocktail (10 ul) containing ^3H-SAM and peptide was added to initiate the reaction (final volume=51 ul). The final concentrations of the components were as follows: CARM1 was 0.25 nM, ^3H-SAM was 30 nM, peptide was 250 nM, SAH in the minimum signal control wells was 1 mM, and the DMSO concentration was 2%. The assays were stopped by the addition of non-radiolabeled SAM (10 ul) to a final concentration of 300 uM, which dilutes the ^3H-SAM to a level where its incorporation into the peptide substrate is no longer detectable. 50 ul of the reaction in the 384-well polypropylene plate was then transferred to a 384-well Flashplate and the biotinylated peptides were allowed to bind to the streptavidin surface for at least 1 hour before being washed once with 0.1% Tween20 in a Biotek ELx405 plate washer. The plates were then read in a PerkinElmer TopCount plate reader to measure the quantity of ^3H-labeled peptide bound to the Flashplate surface, measured as disintegrations per minute (dpm) or alternatively, referred to as counts per minute (cpm).
where dpm=disintegrations per minute, cmpd=signal in assay well, and min and max are the respective minimum and maximum signal controls. […]

[1] = system: asymmetric di-methyl PABP1 in RKO cells; experiment: RKO methylation assay (In Cell Western for asymmetric di-methyl PABP1); format: cell-based; details: 48 hours incubation, read-out: Cellular IC50
Text: RKO adherent cells were purchased from ATCC (American Type Culture Collection), Manassas, Va., USA. DMEM/Glutamax medium, penicillin-streptomycin, heat inactivated fetal bovine serum, 0.05% trypsin and D-PBS were purchased from Life Technologies, Grand Island, N.Y., USA. Odyssey blocking buffer, 800CW goat anti-rabbit IgG (H+L) antibody, and Licor Odyssey infrared scanner were purchased from Licor Biosciences, Lincoln, Nebr., USA. Asymmetric di-methyl PABP1 antibody was purchased from Cell Signaling Technology, Danvers, Mass., USA. Methanol was purchased from VWR, Franklin, Mass., USA. 10% Tween 20 was purchased from KPL, Inc., Gaithersburg, Md., USA. Paraformaldehyde (PFA) was purchased from EM Sciences. DRAQ5 was purchased from Biostatus Limited, Leicestershire, UK.
RKO adherent cells were maintained in growth medium (DMEM/Glutamax medium supplemented with 10% v/v heat inactivated fetal bovine serum and 100 units/mL penicillin-streptomycin) and cultured at 37° C. under 5% CO2.
Compound (100 nL) from a 96-well source plate was added directly to 384 well cell plate. Plates were incubated at 37° C., 5% CO2 for 48 hours. After two days of incubation, plates were brought to room temperature outside of the incubator for ten minutes and blotted on paper towels to remove cell media. Cells were fixed for 20 minutes at room temperature by adding 50 ul of 8% PFA followed by aspiration of supernatant with the Biotek EL406 plate washer. Cells were then permeabilized by addition of 50 μL of ice cold 100% methanol directly to each well and incubated for 30 min at room temperature. After 30 min, plates were transferred to a Biotek EL406 plate washer and washed 2 times with 100 μL per well of wash buffer (IX PBS). Next 60 μL per well of Odyssey blocking buffer (Odyssey Buffer with 0.1% Tween 20 (v/v)) were added to each plate and incubated 1 hour at room temperature. Blocking buffer was removed and 20 μL per well of primary antibody was added (asymmetric-methyl PABP1) diluted 1:400 in Odyssey buffer with 0.1% Tween 20 (v/v)) and plates were incubated overnight (16 hours) at 4° C. Plates were washed 5 times with 100 μL per well of wash buffer. Next 20 μL per well of secondary antibody was added (1:800 800CW goat anti-rabbit IgG (H+L) antibody, 1:2000 DRAQ5 in Odyssey buffer with 0.1% Tween 20 (v/v)) and incubated for 1 hour at room temperature. The plates were washed 5 times with 100 μL per well wash buffer then 2 times with 100 μL per well of water. Plates were allowed to dry at room temperature then imaged on the Licor Odyssey machine which measures integrated intensity at 700 nm and 800 nm wavelengths. Both 700 and 800 channels were scanned.
First, the ratio for each well was determined by:
Each plate included fourteen control wells of DMSO only treatment (minimum inhibition) as well as fourteen control wells for maximum inhibition treated with 20 μM of a reference compound. The average of the ratio values for each control type was calculated and used to determine the percent […] for each test well in the plate. Reference compound was serially diluted three-fold in DMSO for a total of nine test concentrations, beginning at 20 μM.
Percent inhibition was determined and IC50 curves were generated using triplicate wells per concentration of compound.

T1 sequence (Q86X55 other isoform, or with tags, fused parts or gaps): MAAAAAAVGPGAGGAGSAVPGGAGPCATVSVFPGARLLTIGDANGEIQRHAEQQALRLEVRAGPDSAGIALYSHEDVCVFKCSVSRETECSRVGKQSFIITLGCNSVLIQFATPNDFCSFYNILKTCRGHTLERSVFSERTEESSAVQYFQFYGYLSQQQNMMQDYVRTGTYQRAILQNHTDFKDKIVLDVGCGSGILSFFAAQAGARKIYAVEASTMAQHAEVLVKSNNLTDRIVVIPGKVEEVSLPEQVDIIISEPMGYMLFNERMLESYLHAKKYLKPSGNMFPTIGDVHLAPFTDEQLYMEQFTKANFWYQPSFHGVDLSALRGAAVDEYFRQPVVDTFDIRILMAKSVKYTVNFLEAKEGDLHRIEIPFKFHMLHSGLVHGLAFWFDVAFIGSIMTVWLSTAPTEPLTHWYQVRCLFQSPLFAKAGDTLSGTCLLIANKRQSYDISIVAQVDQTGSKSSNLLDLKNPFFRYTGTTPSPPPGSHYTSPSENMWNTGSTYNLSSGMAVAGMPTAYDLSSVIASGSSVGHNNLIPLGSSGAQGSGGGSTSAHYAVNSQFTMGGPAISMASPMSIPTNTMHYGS

| IC50 (Human CARM1 (PRMT4)) [µM] | IC50 ([1]; Homo sapiens) [µM] | IC50 [1] [µM] | SMILES |
| --- | --- | --- | --- |
| < 0.1 | 10 to 20 | – | Cc1nn(C(C)C)c2nc(-c3cccc(OCC(O)CN)c3)cc(N3CCOCC3)c12 (stereo not drawn) [Example 1-2] |
| < 0.1 | > 20 | – | CNCC(O)COc1cccc(-c2cc(C(=O)NCc3c(C)cc(C)[nH]c3=O)c3cnn(C(C)C)c3n2)c1 (stereo not drawn) [Example 1-3] |
| 0.1 to 1 | > 20 | – | CCOC(=O)c1c(-c2cccc(OCC(O)CNC)c2)nc2c(cnn2C(C)C)c1N1CCOCC1 (stereo not drawn) [Example 1-5] |
| < 0.1 | > 20 | – | CNCC(O)COc1cc(OC)cc(-c2cc(-c3cnc4[nH]ccc4c3)n3ncc(C(C)C)c3n2)c1 (stereo not drawn) [Example 1-6] |
| < 0.1 | > 20 | – | CNCC(O)COc1cc(OC)cc(-c2cc(-c3cnc4[nH]ccc4c3)nc3c(C(C)C)cnn23)c1 (stereo not drawn) [Example 1-7] |
| < 0.1 | 10 to 20 | – | CC(C)n1ncc2c(N3CCOCC3)cc(-c3cccc(OC[C@H](O)CN)c3)nc21 [Example 1-8] |
| < 0.1 | > 20 | – | CNCC(O)COc1cc(Cl)cc(-c2cc(N(C)C3CCOCC3)n3ncc(C4CC4)c3n2)c1 (stereo not drawn) [Example 1-9] |
| < 0.1 | > 20 | – | CNCC(O)COc1cccc(-c2cc(NC3CCOCC3)c3c(C4CC4)nn(C(C)C)c3n2)c1 (stereo not drawn) [Example 2-2] |
| < 0.1 | > 20 | – | CNCC(O)COc1cc(Cl)cc(-c2cc(NC3CCOCC3)c3cnn(C(C)C)c3n2)c1 (stereo not drawn) [Example 2-4] |
| < 0.1 | 5 to 10 | – | CNCC(O)COc1cc(OC)cc(-c2cc(N(C)C3CCOCC3)n3ncc(C(C)C)c3n2)c1 (stereo not drawn) [Example 2-6] |
| < 0.1 | > 20 | – | CNCC(O)COc1cc(Cl)cc(-c2cc(-c3cc[nH]n3)nc3c(C(C)C)cnn23)c1 (stereo not drawn) [Example 2-7] |
| < 0.1 | > 20 | – | Cc1cc(C)c(CNC(=O)c2cc(-c3cccc(OCC(O)CN)c3)nc3c2cnn3C(C)C)c(=O)[nH]1 (stereo not drawn) [Example 2-8] |
| < 0.1 | > 20 | – | CNCC(O)COc1cc(OC)cc(-c2cc(N(C)C3CCOCC3)n3ncc(C4CC4)c3n2)c1 (stereo not drawn) [Example 2-9] |
| < 0.1 | 10 to 20 | – | CNCC(O)COc1cccc(-c2cc(N3CCOCC3)c3c(C)nn(C(C)C)c3n2)c1 (stereo not drawn) [Example 3-2] |
| 0.1 to 1 | > 20 | – | CC(C)n1ncc2c(C(=O)NCC3CCOCC3)cc(-c3cccc(OCC(O)CN)c3)nc21 (stereo not drawn) [Example 3-3] |
| < 0.1 | 10 to 20 | – | CNCC(O)COc1cc(OC)cc(-c2cc(N(C)c3cncnc3)c3cnn(C(C)C)c3n2)c1 (stereo not drawn) [Example 3-4] |

| IC50 (Human CARM1 (PRMT4)) [µM] | IC50 ([1]; Homo sapiens) [µM] | IC50 [1] [µM] | SMILES |
| --- | --- | --- | --- |
| < 0.1 | – | 5 to 10 | CNCC(O)COc1cccc(-c2nc(NC3CCOCC3)c3cnn(C(C)(C)C)c3n2)c1 (stereo not drawn) [Example 3-5] |
| < 0.1 | > 20 | – | CNCC(O)COc1cc(-c2cc(N3CCOCC3)n3ncc(C(C)C)c3n2)cc(C2CC2)c1 (stereo not drawn) [Example 3-6] |
| < 0.1 | 10 to 20 | – | CNCC(O)COc1cc(OC)cc(-c2cc(N3CCOCC3)nc3c(C4CC4)cnn23)c1 (stereo not drawn) [Example 3-7] |
| 0.1 to 1 | > 20 | – | CNCC(O)COc1cccc(-c2cc(NCC#N)c3cnn(C(C)C)c3n2)c1 (stereo not drawn) [Example 3-8] |
| < 0.1 | 10 to 20 | – | CNCC(O)COc1cccc(-c2cc(N(C)Cc3ccccn3)c3cnn(C(C)C)c3n2)c1 (stereo not drawn) [Example 3-9] |
| < 0.1 | 10 to 20 | – | CNCC(O)COc1cccc(-c2cc(NC3CCOCC3)c3c(C)nn(C(C)C)c3n2)c1 (stereo not drawn) [Example 4-2] |
| < 0.1 | 10 to 20 | – | Cc1cc(OCC(O)CN)cc(-c2cc(N3CCOCC3)c3cnn(C(C)C)c3n2)c1 (stereo not drawn) [Example 4-4] |
| < 0.1 | > 20 | – | CNCC(O)COc1cccc(-c2cc(-c3cnc4[nH]ccc4c3)nc3c(C(C)C)cnn23)c1 (stereo not drawn) [Example 4-7] |
| < 0.1 | > 20 | – | CC(C)c1cnn2c(N3CCOCC3)cc(-c3cccc(OCC(O)CN)c3)nc12 (stereo not drawn) [Example 4-8] |
| < 0.1 | > 20 | – | CNCC(O)COc1cccc(-c2cc(N(C)C3CCOCC3)nc(N3CCOCC3)n2)c1 (stereo not drawn) [Example 4-9] |
| 0.1 to 1 | > 20 | – | CNCC(O)COc1cccc(-c2cc(NC3CCOCC3)c3c(C#N)nn(C(C)C)c3n2)c1 (stereo not drawn) [Example 5-2] |
| < 0.1 | 10 to 20 | – | COc1cc(OCC(O)CN)cc(-c2cc(N3CCOCC3)c3cnn(C(C)C)c3n2)c1 (stereo not drawn) [Example 5-4] |
| < 0.1 | > 20 | – | CNCC(O)COc1cc(OC)cc(-c2cc(C)n3ncc(C(C)C)c3n2)c1 (stereo not drawn) [Example 5-6] |
| < 0.1 | – | – | CNCC(O)COc1cccc(-c2cc(N(C)[C@H]3CCOC3)n3ncc(C(C)C)c3n2)c1 (stereo partly drawn) [Example 14-6] |
| < 0.1 | – | – | CNCC(O)COc1cccc(-c2cc(N(C)C3CCOCC3)n3ncc(C(C)(C)C)c3n2)c1 (stereo not drawn) [Example 16-8] |
| < 0.1 | – | – | CNCC(O)COc1cc(OC)cc(-c2cc(N(C)C3CCOCC3)n3ncc(C4CC4)c3n2)c1 (stereo not drawn) [Example 44-6] |

| SMILES | IC50 (Human CARM1 (PRMT4)) [µM] | IC50 ([1]; Homo sapiens) [µM] | IC50 [1] [µM] |
| --- | --- | --- | --- |
| CNCC(O)COc1cccc(-c2nc(N3[C@@H]4CC[C@H]3COC4)c3cnn(C4CC4)c3n2)c1 (stereo partly drawn) [Example 5-5] | 0.1 to 1 | > 20 | – |
